Series [1] addresses T1, recombinant human mGluR4a receptors (Homo sapiens, UniProt Q14833).
T1 construct: expressed in transfected cells
As to the kind of experiment: mGluR4 assay on HEK-expressing human mGluR4: fluorescent cell based Ca2+ mobilization assay (FLIPR). The note with it: HEK-293 cells expressing hmGluR4; enhancement of EC25 glutamate response; mean of at least three independent experiments in duplicate; read-out: Ca^2+ Flux (mean EC50). From the text:
mGluR4 Assay on HEK-Expressing Human mGluR4
The compounds of the present invention are positive allosteric modulators of mGluR4 receptor. Their activity was examined on recombinant human mGluR4a receptors by detecting changes in intracellular Ca^2+ concentration, using the fluorescent Ca^2+-sensitive dye Fluo4-(AM) and a Fluorometric Imaging Plate Reader (FLIPR, Molecular Devices, Sunnyvale, Calif.).
The cDNA encoding the human metabotropic glutamate receptor (hmGluR4), (accession number NM 000841.1, NCBI Nucleotide database browser), was subcloned into an expression vector containing also the hygromycin resistance gene. In parallel, the cDNA encoding a G protein allowing redirection of the activation signal to intracellular calcium flux was subcloned into a different expression vector containing also the puromycin resistance gene. Transfection of both these vectors into HEK293 cells with PolyFect reagent (Qiagen) according to supplier's protocol, and hygromycin and puromycin treatment allowed selection of antibiotic resistant cells which had integrated stably one or more copies of the plasmids. Positive cellular clones expressing hmGluR4 were identified in a functional assay measuring changes in calcium fluxes in response to glutamate or selective known mGluR4 orthosteric agonists and antagonists.
HEK-293 cells expressing hmGluR4 were maintained in media containing DMEM, dialyzed Fetal Calf Serum (10%), Glutamax™ (2 mM), Penicillin (100 units/mL), Streptomycin (100 μg/mL), Geneticin (100 μg/mL) and Hygromycin-B (40 μg/mL) and puromycin (1 μg/mL) at 37° C.5% CO2.
Human mGluR4 HEK-293 cells were plated out 24 hours prior to FLIPR^384 assay in black-walled, clear-bottomed, poly-L-ornithine-coated 384-well plates at a density of 25,000 cells/well in a glutamine/glutamate free DMEM medium containing foetal bovine serum (10%), penicillin (100 units/mL) and streptomycin (100 μg/mL) at 37° C.5% CO2.
On the day of the assay, the medium was aspirated and the cells were loaded with a 3 μM solution of Fluo4-AM (LuBioScience, Lucerne, Switzerland) in 0.03% pluronic acid. After 1 hour at 37° C. 5% CO2, the non incorporated dye was removed by washing cell plate with the assay buffer and the cells were left in the dark at room temperature for six hours before testing. All assays were performed in a pH 7.4 buffered-solution containing 20 mM HEPES, 143 mM NaCl, 6 mM KCl, 1 mM MgSO4, 1 mM CaCl2, 0.125 mM sulfapyrazone and 0.1% glucose.
After 10 s of basal fluorescence recording, various concentrations of the compounds of the invention were added to the cells. Changes in fluorescence levels were first monitored for 180 s in order to detect any agonist activity of the compounds. Then the cells were stimulated by an EC25 glutamate concentration for an additional 110 s in order to measure enhancing activities of the compounds of the invention. EC25 glutamate concentration is the concentration giving 25% of the maximal glutamate response.
The concentration-response curves of representative compounds of the present invention were generated using the Prism GraphPad software (Graph Pad Inc, San Diego, USA). The curves were fitted to a four-parameter logistic equation:
(Y=Bottom+(Top-Bottom)(1+10̂((Log EC50−X)*Hill Slope)
allowing the determination of EC50 values.
The Table 3 below represents the mean EC50 obtained from at least three independent experiments of selected molecules performed in duplicate.

Structures are written as SMILES.

T1 sequence (Q14833 33-912): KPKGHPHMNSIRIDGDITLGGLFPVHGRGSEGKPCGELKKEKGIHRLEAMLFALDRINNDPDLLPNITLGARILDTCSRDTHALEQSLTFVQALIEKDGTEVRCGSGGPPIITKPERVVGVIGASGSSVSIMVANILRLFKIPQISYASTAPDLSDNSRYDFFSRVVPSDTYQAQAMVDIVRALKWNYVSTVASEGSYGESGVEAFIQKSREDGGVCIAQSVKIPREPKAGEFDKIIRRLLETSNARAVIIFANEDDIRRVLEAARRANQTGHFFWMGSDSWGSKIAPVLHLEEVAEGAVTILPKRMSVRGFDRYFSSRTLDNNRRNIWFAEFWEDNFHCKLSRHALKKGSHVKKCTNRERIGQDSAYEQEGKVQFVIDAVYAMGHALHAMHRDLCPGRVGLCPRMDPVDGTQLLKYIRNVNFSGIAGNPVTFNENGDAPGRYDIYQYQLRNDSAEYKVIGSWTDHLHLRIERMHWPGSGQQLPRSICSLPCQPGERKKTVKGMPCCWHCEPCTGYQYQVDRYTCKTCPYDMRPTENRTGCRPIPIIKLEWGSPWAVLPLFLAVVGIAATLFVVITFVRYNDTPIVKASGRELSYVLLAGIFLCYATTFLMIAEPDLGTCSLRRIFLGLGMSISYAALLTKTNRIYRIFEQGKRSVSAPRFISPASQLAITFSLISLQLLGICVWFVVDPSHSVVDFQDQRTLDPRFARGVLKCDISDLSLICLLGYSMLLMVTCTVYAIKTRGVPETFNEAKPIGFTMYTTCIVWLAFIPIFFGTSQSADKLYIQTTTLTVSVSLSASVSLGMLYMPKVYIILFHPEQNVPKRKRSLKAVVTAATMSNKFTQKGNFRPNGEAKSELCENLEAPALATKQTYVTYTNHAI

For `Fc1cnc(Nc2nc3c(s2)CCN(CCCN2CCC(F)(F)CC2)c2[nH]ncc2-3)nc1` [Compound 1-148, 6-(3-(4,4-Difluoropiperidin-1-yl)propyl)-N-(5-fluoropyrimidin-2-yl)-4,5,6,8-tetrahydropyrazolo[3,4-b]thiazolo[4,5-d]azepin-2-amine], the melting point is 238 to 240 °C. In series [1], the EC50 lay in the range of 0.1 to 1 µM.
In the same order, the values of `Fc1cnc(Nc2nc3c(s2)CCN(Cc2csc(C4CC4)n2)c2[nH]ncc2-3)nc1` [Compound 1-8] are 240 to 245 °C and 0.1 to 1 µM.
For `Fc1cnc(Nc2nc3c(s2)CCN(Cc2cccc(F)c2)c2[nH]ncc2-3)nc1` [Compound 1-2], the melting point was 265 to 270 °C. Besides, the EC50 in series [1] lay in the range of 1 to 10 µM.
The matching figures for `COCCOCCN1CCc2sc(Nc3ncc(F)cn3)nc2-c2cn[nH]c21` [Compound 1-133]: over 220 °C and under 0.1 µM.
Consider `Cc1ccnc(Nc2nc3c(s2)CCNc2[nH]ncc2-3)n1` [Compound 1-52], for which the melting point is 229 to 232 °C. For the same compound, the EC50 in series [1] was under 0.1 µM.
`Fc1cnc(Nc2nc3c(s2)CCN(Cc2ccc(N4CCOCC4)cn2)c2[nH]ncc2-3)nc1` [Compound 1-135, N-(5-Fluoropyrimidin-2-yl)-6-((5-morpholinopyridin-2-yl)methyl)-4,5,6,8-tetrahydropyrazolo[3,4-b]thiazolo[4,5-d]azepin-2-amine] gave a melting point of 240 °C. In addition, the EC50 in series [1] is under 0.1 µM.
In turn, `O=S1(=O)CCN(CCCN2CCc3sc(Nc4ncc(F)cn4)nc3-c3cn[nH]c32)CC1` [Compound 1-151, 4-(3-(2-((5-Fluoropyrimidin-2-yl)amino)-4,5-dihydropyrazolo[3,4-b]thiazolo[4,5-d]azepin-6(8H)-yl)propyl)thiomorpholine 1,1-dioxide] showed a melting point of 272 to 273 °C. Besides, in series [1], the EC50 was under 0.1 µM.
For `Cc1ccnc(Nc2nc3c(s2)CCN(Cc2ccc(Cl)cn2)c2[nH]ncc2-3)n1` [Compound 1-10], the melting point is 165 to 168 °C. For the same compound, the EC50 in series [1] was under 0.1 µM.
In the same order, the values of `COCC(C)N1CCc2sc(Nc3ncc(F)cn3)nc2-c2cn[nH]c21` (stereo not shown) [Compound 1-125] are 212 to 215 °C and under 0.1 µM.
Compound `Cc1ccnc(Nc2nc3c(s2)CCN(CCCN2CCOCC2)c2[nH]ncc2-3)n1` [Compound 1-145] gave a melting point of 251 °C. Further, the EC50 in series [1] is under 0.1 µM.
In the same order, the values of `Cc1cccc(Nc2nc3c(s2)CCN(C[C@@H]2CCCO2)c2[nH]ncc2-3)n1` [Compound 1-127] are 229 to 231 °C and 0.1 to 1 µM.
In the same order, the values of `COC[C@H](C)N1CCc2sc(Nc3ncc(F)cn3)nc2-c2cn[nH]c21` [Compound 1-131, N-(5-Fluoropyrimidin-2-yl)-6-(2-methoxy-1(S)-methyl-ethyl)-4,5,6,8-tetrahydropyrazolo[3,4-b]thiazolo[4,5-d]azepin-2-amine] are 249 to 251 °C and under 0.1 µM.
`Fc1cnc(Nc2nc3c(s2)CCN(CC2CC(F)(F)C2)c2[nH]ncc2-3)nc1` [Compound 1-14] had a melting point of over 280 °C. Also, the EC50 in series [1] was 0.1 to 1 µM.
As to `CC1COCC(C)N1CCCN1CCc2sc(Nc3ncc(F)cn3)nc2-c2cn[nH]c21` (stereo not shown) [Compound 1-153], the melting point was found to be 223 °C. Moreover, the EC50 in series [1] is under 0.1 µM.
`COCc1ccc(CN2CCc3sc(Nc4ncc(F)cn4)nc3-c3cn[nH]c32)nc1` [Compound 1-143] registered a melting point of 198 to 202 °C. Further, the EC50 in series [1] is under 0.1 µM.
Turning to `Fc1cnc(Nc2nc3c(s2)CCN(CCCN2CCCCC2)c2[nH]ncc2-3)nc1` [Compound 1-144], the melting point was 227 °C. In addition, in series [1], the EC50 was 0.1 to 1 µM.
In the same order, the values of `CCOCCN1CCc2sc(Nc3ncc(F)cn3)nc2-c2cn[nH]c21` [Compound 1-134] are 246 °C and under 0.1 µM.
`Cn1ccc(CN2CCc3sc(Nc4ncc(F)cn4)nc3-c3cn[nH]c32)n1` [Compound 1-139] returned a melting point of 195 to 200 °C. Also, the EC50 in series [1] lay in the range of 0.1 to 1 µM.
`COC(C)(C)CN1CCc2sc(Nc3ncc(F)cn3)nc2-c2cn[nH]c21` [Compound 1-124] showed a melting point of 282 to 285 °C. Moreover, the EC50 in series [1] lay within 0.1 to 1 µM.
The matching figures for `COCCN1CCc2sc(Nc3ncc(F)c(C)n3)nc2-c2cn[nH]c21` [Compound 1-129, N-(5-Fluoro-4-methylpyrimidin-2-yl)-6-(2-methoxyethyl)-4,5,6,8-tetrahydropyrazolo[3,4-b]thiazolo[4,5-d]azepin-2-amine]: 261 to 263 °C and under 0.1 µM.

Source of the values: patent US20140349994A1, “Novel 2-Amino-4,5,6,8-Tetrahydropyrazolo[3,4-b]Thiazolo [4,5-d]Azepine Derivatives and Their Use as Allosteric Modulators of Metabotropic Glutamate Receptors” (Addex Pharma S.A., priority 2012, published 2014).
